Measurements as given in patent US4320052A, “Derivatives of A-30912A nucleus” (Eli Lilly and Company, priority 1980, dated 1982).
≈ marks a conversion by molar mass, not a printed value. Where two headings read alike, the source gives them in different places. Numbered stars: 1 amine (or outer) side, 2 acyl side, 3 side chain; on linkers, the order of the positions; unused ones are H or OH. Bridge positions count the residues as written; N and C are the ends. Square brackets hold non-standard residues; d marks the D form. Peptide text beside a SMILES is read from it. * marks the point of attachment. Orn(4R-OH,5R-OH) = O=C([C@H](C[C@@H](O)[C@@H](O)N[*:3])N[*:1])[*:2]; hTyr(3S-OH,4S-OH) = N[C@H](C(=O)O)[C@H](O)[C@@H](O)c1ccc(O)cc1; Pro(3S-OH,4S-Me) = C[C@H]1CN[C@H](C(=O)O)[C@H]1O; Heptadecanoyl = CCCCCCCCCCCCCCCCC(=O)*; X1 = CC/C=C\C/C=C\C/C=C\CCCCCCCC(=O)*; X2 = CCCCC/C=C/C/C=C/CCCCCCCC(=O)*; Hyp = O=C(O)[C@@H]1C[C@@H](O)CN1; Tridecanoyl = CCCCCCCCCCCCC(=O)*; X3 = CCCCCCCC/C=C/CCCCCCCC(=O)*

What was measured:
[1] = test system: Saccharomyces pastoranius X-52; assay: Agar plate disc diffusion test (zone of inhibition); format: cell-based, Saccharomyces pastorianus
Protocol: (§1) Tables II and III give the results of the testing in vitro of the compounds of Examples 1-16 by agar-plate disc-diffusion methods. In Table II activity is measured by the size (diameter in mm.) of the observed zone of inhibition of the microorganism produced by the test compound. In Table III, activity is measured by the minimal inhibitory concentration (MIC) of the substance (μg/dic) required to inhibit growth of the test organism. Table IV gives the results of the testing in vitro of the n-tridecanoyl derivative of A30912A nucleus (Formula III, R is n-C12 H25) against five strains of Candida albicans by the agar dilution method. In […] activity is measured by the minimal inhibitory concentration (MIC) of the substance (μg/ml) required to inhibit the test organism.
(§2) ^(a) Compounds were tested as suspension in methanol at a
(§3) concentration of 1 mg/ml. by dipping a 7mm disc into the suspension and
(§4) placing it on the agar surface. Incubation: 24-48 hours at 25-37°

[2] = Blood levels after oral administration in mice (bioassay vs. Aspergillus montevidensis A35137); details: mouse, in vivo; for concentration at 4 h: po
From the text: determined by bioassay vs. Aspergillus montevidensis A35137.

Candida albicans A-26 [3] = assay: Agar plate disc diffusion test (MIC); format: cell-based; details: 0.01M sodium borate pH 7.5; 20 μg/disc top, twofold dilutions; 24 hours, 30° C.
Protocol: as §1
(§5) *Compounds were suspended in 0.01M sodium borate solution, pH 7.5. The
(§6) compounds were tested at 20 μg/disc at top level and at twofold
(§7) dilutions until end points were reached. Incubation: 24 hours; 30°

[4] = test system: Trichophyton mentagrophytes #6; assay: Agar plate disc diffusion test (MIC); format: cell-based; details: 0.01M sodium borate pH 7.5; 20 μg/disc top, twofold dilutions; 24 hours, 30° C.
Protocol: as §1, §5, §6, §7

Candida albicans A-26 [5] = assay: In vivo activity against Candida albicans A-26 infection in mice; set-up: species or system mice infected with Candida albicans A-26; details: Candida albicans, A26, sc, 24 h; for minimal effective dose: read-out: Lowest Active Dose
Protocol: The results of in vivo tests to evaluate the effectiveness of the compound of Examples 1-16 against an infection caused by Candida albicans A-26 in mice are given in Table V, where activity is measured by the ED50 value (the dose in mg/kg. required to cure 50% of the test animals). Where an ED50 value was not obtained, activity is indicated by the lowest dose at which a significant anti-fungal effect is observed. In this test, groups of male albino mice (specific pathogen free), weighing 18 to 20 grams, are infected intravenously with Candida albicans A-26. The animals are X-irradiated 24 hours prior to infection at about 50 roentgens per minute for 8 minutes (400 total dose) to reduce immune responses to the infecting organism. At 0, 4, and 24 hours post infection each group of mice is given graded doses subcutaneously of the test compound as a suspension in 33% polyethylene glycol-water. The day of death for each animal is recorded.
mg/kg. Dosages given 0, 4, and 24 hours post injection as suspension of
test compound in 30% PEG--H2 O. Number of mice receiving test
compounds at each dosage level; 6 mice per group. Number of mice in
control (untreated) group: 10 mice per group.
**As measured by increase in survival time of treated animals versus
control, calculated by method of Reed v Mueuch, American J. Hygiene, 27,

Neurospora crassa 846 = assay: Agar plate disc diffusion test (zone of inhibition); format: cell-based
Protocol: as §1, §2, §3, §4

Candida albicans A-26 [6] = assay: as above; format: cell-based; details: suspension in methanol 1 mg/ml, 7mm disc; 24-48 hours at 25-37° C.
Protocol: as §1, §2, §3, §4

[7] = test system: Trichophyton mentagraphytes A-23; assay: as above; format: cell-based, Trichophyton mentagrophytes
Protocol: as §1, §2, §3, §4

[8] = Toxicity in dog, intravenous administration; format: in vivo; details: 100 mg/kg per day for five days
Candida albicans = assay: Agar dilution test against strains of Candida albicans (MIC); format: cell-based
Protocol: as §1

[9] = X52, suspension in methanol 1 mg/ml, 7mm disc, 24-48 hours at 25-37° C., read-out: Size of zone of inhibition, Saccharomyces pastoranius X-52
[10] = mice, subcutaneous, schedule A (40, 20, 15, and 10 mg/kg), 0, 4, 24 hours, increase in survival time, read-out: ED50
[11] = mice, subcutaneous, schedule A (40, 20, 15, and 10 mg/kg), 0, 4, 24 hours
[12] = Neurospora crassa, 846, suspension in methanol 1 mg/ml, 7mm disc, 24-48 hours at 25-37° C., read-out: Size of zone of inhibition, Neurospora crassa 846
[13] = A23, suspension in methanol 1 mg/ml, 7mm disc, *distinct measurable zone of inhibition with regrowth of organism around disc, read-out: Size of zone of inhibition, Trichophyton mentagraphytes A-23 (*)
[14] = Neurospora crassa, 846, suspension in methanol 1 mg/ml, 7mm disc, *distinct measurable zone of inhibition with regrowth of organism around disc, read-out: Size of zone of inhibition, Neurospora crassa 846 (*)
[15] = A23, suspension in methanol 1 mg/ml, 7mm disc, 24-48 hours at 25-37° C., read-out: Size of zone of inhibition, Trichophyton mentagraphytes A-23

concentration at 4 h ([2]; 416 mg/kg) [ng/mL] | MIC, Candida albicans A-26 (Candida albicans A-26 [3]) [μg/disc] | MIC, Trichophyton mentagrophytes #6 [4] [μg/disc] | Compound | zone of inhibition at 1000 µg/mL [1, 9] [mm] | ED50 (Candida albicans A-26 [5]; [10]) [mg/kg] | minimal effective dose (Candida albicans A-26 [5]; [11]) [mg/kg] | zone of inhibition at 1000 µg/mL (Neurospora crassa 846; [12]) [mm] | Size of zone of inhibition, Candida albicans A-26 (Candida albicans A-26 [6]) [mm] | zone of inhibition at 1000 µg/mL [7, 13] [mm] | zone of inhibition at 1000 µg/mL (Neurospora crassa 846; [14]) [mm] | zone of inhibition at 1000 µg/mL [7, 15] [mm] | other results
97000 | 0.625 | 0.039 | CCCCCCCCCCCCCCCCC(=O)N[C@H]1C[C@@H](O)[C@@H](O)NC(=O)[C@@H]2[C@@H](O)[C@@H](C)CN2C(=O)[C@H]([C@@H](C)O)NC(=O)[C@H]([C@H](O)[C@@H](O)c2ccc(O)cc2)NC(=O)[C@@H]2C[C@@H](O)CN2C(=O)[C@H]([C@@H](C)O)NC1=O [Example 5] (Heptadecanoyl-[Orn(4R-OH,5R-OH)]T[Hyp][hTyr(3S-OH,4S-OH)]T[Pro(3S-OH,4S-Me)]; lactam 1-C) | 30 | 9 | ≥ 5 | 21 | 18 | 40 | – | – | –
65000 | 0.156 | < 0.039 | CCCCCCCC/C=C/CCCCCCCC(=O)N[C@H]1C[C@@H](O)[C@@H](O)NC(=O)[C@@H]2[C@@H](O)[C@@H](C)CN2C(=O)[C@H]([C@@H](C)O)NC(=O)[C@H]([C@H](O)[C@@H](O)c2ccc(O)cc2)NC(=O)[C@@H]2C[C@@H](O)CN2C(=O)[C@H]([C@@H](C)O)NC1=O [Example 8] (X3-[Orn(4R-OH,5R-OH)]T[Hyp][hTyr(3S-OH,4S-OH)]T[Pro(3S-OH,4S-Me)]; lactam 1-C) | 18 | 11 | 10 | 32 | 21 | 31 | – | – | –
610 | 0.156 | < 0.039 | CCCCC/C=C/C/C=C/CCCCCCCC(=O)N[C@H]1C[C@@H](O)[C@@H](O)NC(=O)[C@@H]2[C@@H](O)[C@@H](C)CN2C(=O)[C@H]([C@@H](C)O)NC(=O)[C@H]([C@H](O)[C@@H](O)c2ccc(O)cc2)NC(=O)[C@@H]2C[C@@H](O)CN2C(=O)[C@H]([C@@H](C)O)NC1=O [Example 10] (X2-[Orn(4R-OH,5R-OH)]T[Hyp][hTyr(3S-OH,4S-OH)]T[Pro(3S-OH,4S-Me)]; lactam 1-C) | 24 | 16 | 10 | – | 24 | – | 26 | 36 | –
– | 1.25 | 0.039 | CC/C=C\C/C=C\C/C=C\CCCCCCCC(=O)N[C@H]1C[C@@H](O)[C@@H](O)NC(=O)[C@@H]2[C@@H](O)[C@@H](C)CN2C(=O)[C@H]([C@@H](C)O)NC(=O)[C@H]([C@H](O)[C@@H](O)c2ccc(O)cc2)NC(=O)[C@@H]2C[C@@H](O)CN2C(=O)[C@H]([C@@H](C)O)NC1=O [Example 11] (X1-[Orn(4R-OH,5R-OH)]T[Hyp][hTyr(3S-OH,4S-OH)]T[Pro(3S-OH,4S-Me)]; lactam 1-C) | 16 | > 40 | > 40 | – | 30 | – | 33 | 36 | Blood Levels After Oral Administration In Mice ([2]; 240 min): 0 ng/mL

Compound | concentration at 4 h ([2]; 416 mg/kg) [ng/mL] | MIC, Candida albicans A-26 (Candida albicans A-26 [3]) [μg/disc] | MIC, Trichophyton mentagrophytes #6 [4] [μg/disc] | zone of inhibition at 1000 µg/mL [1, 9] [mm] | ED50 (Candida albicans A-26 [5]; [10]) [mg/kg] | minimal effective dose (Candida albicans A-26 [5]; [11]) [mg/kg] | zone of inhibition at 1000 µg/mL (Neurospora crassa 846; [12]) [mm] | Size of zone of inhibition, Candida albicans A-26 (Candida albicans A-26 [6]) [mm] | zone of inhibition at 1000 µg/mL [7, 13] [mm] | zone of inhibition at 1000 µg/mL (Neurospora crassa 846; [14]) [mm] | zone of inhibition at 1000 µg/mL [7, 15] [mm] | other results
CCCCCCCCCCCCC(=O)N[C@H]1C[C@@H](O)[C@@H](O)NC(=O)[C@@H]2[C@@H](O)[C@@H](C)CN2C(=O)[C@H]([C@@H](C)O)NC(=O)[C@H]([C@H](O)[C@@H](O)c2ccc(O)cc2)NC(=O)[C@@H]2C[C@@H](O)CN2C(=O)[C@H]([C@@H](C)O)NC1=O [Example 2, n-Tridecanoyl Derivative of A-30912A Nucleus] (Tridecanoyl-[Orn(4R-OH,5R-OH)]T[Hyp][hTyr(3S-OH,4S-OH)]T[Pro(3S-OH,4S-Me)]; lactam 1-C) | – | 0.625 | 0.039 | – | – | – | – | 30 | – | – | – | zone of inhibition at 1000 µg/mL ([1]; X52, read-out: Size of zone of inhibition, Saccharomyces pastoranius X-52): 21 mm; concentration at 4 h ([2]; four hours after 416 mg/kg by gavage, suspension in 33% PEG 400-H2O, read-out: Blood Levels After Oral Administration In Mice): 100 ng/mL; SGPT levels [8]: increased SGPT levels; hemolysis [8]: evidence of hemolysis; outward signs of toxicity [8]: no outward signs of toxicity; MIC (Candida albicans; read-out: MIC, Candida albicans A26): 0.312 µg/mL (≈ 0.314 µM); MIC (Candida albicans; strain SBH 16, agar dilution, read-out: MIC, Candida albicans SBH 16): 0.625 µg/mL (≈ 0.629 µM); MIC (Candida albicans; strain SBH 28, agar dilution, read-out: MIC, Candida albicans SBH 28): 0.625 µg/mL (≈ 0.629 µM); MIC (Candida albicans; strain SBH 29, agar dilution, read-out: MIC, Candida albicans SBH 29): 0.625 µg/mL (≈ 0.629 µM); MIC (Candida albicans; strain SBH 31, agar dilution, read-out: MIC, Candida albicans SBH 31): 0.625 µg/mL (≈ 0.629 µM); ED50 (Candida albicans A-26 [5]): 34 mg/kg; minimal effective dose (Candida albicans A-26 [5]): 20 mg/kg; zone of inhibition at 1000 µg/mL (Neurospora crassa 846; Neurospora crassa, 846, read-out: Size of zone of inhibition, Neurospora crassa 846 (*)): 32 mm; zone of inhibition at 1000 µg/mL ([7]; A23, read-out: Size of zone of inhibition, Trichophyton mentagraphytes A-23 (*)): 60 mm
